Source: ChEMBL document CHEMBL1138798, “A docking score function for estimating ligand-protein interactions: application to acetylcholinesterase inhibition” (J Med Chem, 2004)

Key:
Acetylcholinesterase [1] = biological target: T1, Acetylcholinesterase (Homo sapiens, UniProt P22303)
Description: Inhibitory activity against Acetylcholinesterase enzyme using human AChE assay

Acetylcholinesterase [2] = biological target: T1, Acetylcholinesterase; remark: listed apart in the source
Description: Binding affinity towards Acetylcholinesterase

T1 sequence (P22303 whole entry): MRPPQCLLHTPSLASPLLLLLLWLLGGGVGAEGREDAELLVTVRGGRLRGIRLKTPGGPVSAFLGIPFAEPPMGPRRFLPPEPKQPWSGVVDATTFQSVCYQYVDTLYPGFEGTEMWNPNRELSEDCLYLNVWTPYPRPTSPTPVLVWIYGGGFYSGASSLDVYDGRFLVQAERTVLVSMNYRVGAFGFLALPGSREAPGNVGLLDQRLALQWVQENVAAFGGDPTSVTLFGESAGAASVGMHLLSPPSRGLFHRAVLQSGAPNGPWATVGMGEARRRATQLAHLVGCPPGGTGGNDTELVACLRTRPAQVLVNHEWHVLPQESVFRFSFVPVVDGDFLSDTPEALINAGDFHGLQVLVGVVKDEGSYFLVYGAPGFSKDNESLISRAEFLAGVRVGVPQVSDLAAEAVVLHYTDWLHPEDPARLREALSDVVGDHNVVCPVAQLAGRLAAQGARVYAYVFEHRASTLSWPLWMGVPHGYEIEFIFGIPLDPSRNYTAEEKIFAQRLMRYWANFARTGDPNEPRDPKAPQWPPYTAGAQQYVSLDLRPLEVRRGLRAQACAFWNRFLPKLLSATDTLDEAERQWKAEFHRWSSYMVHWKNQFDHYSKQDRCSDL

COc1cc2c(cc1OC)C(=O)C(C1CC[N+](C)(Cc3ccccc3)CC1)=C2 (stereo unspecified)
IC50 (Acetylcholinesterase [1]): 0.25 µM
Ki (Acetylcholinesterase [2]): 0.251 µM

COc1cc2cc(C(=O)C3CC[N+](C)(Cc4ccccc4)CCC3OC)sc2cc1OC (stereo unspecified)
IC50 (Acetylcholinesterase [1]): 0.12 µM
Ki (Acetylcholinesterase [2]): 0.12 µM

COc1cc2c(cc1OC)SC(C(=O)CC1C=CC[N+](C)(Cc3ccccc3)CC1)C2 (stereo unspecified)
IC50 (Acetylcholinesterase [1]): 0.75 µM
Ki (Acetylcholinesterase [2]): 0.759 µM

COc1cc2cc(C(=O)C3CCC[N+](C)(Cc4ccccc4)CC3)sc2cc1OC (stereo unspecified)
IC50 (Acetylcholinesterase [1]): 0.008 µM
Ki (Acetylcholinesterase [2]): 0.00794 µM

CCOCC[n+]1ccc(CCC(=O)C2Cc3cc(OC)c(OC)cc3S2)cc1 (stereo unspecified)
IC50 (Acetylcholinesterase [1]): 0.007 µM
Ki (Acetylcholinesterase [2]): 0.00708 µM

CCC[n+]1ccc(CCC(=O)C2Cc3cc(OC)c(OC)cc3S2)cc1 (stereo unspecified)
IC50 (Acetylcholinesterase [1]): 2.57 µM
Ki (Acetylcholinesterase [2]): 2.57 µM

COc1cc2c(cc1OC)SC(CC1CC[N+](C)(Cc3ccccc3)CC1)C2 (stereo unspecified)
IC50 (Acetylcholinesterase [1]): 30 µM
Ki (Acetylcholinesterase [2]): 30.2 µM

COc1cc2c(cc1OC)SC(C(=O)CC(O)C1CC[N+](C)(Cc3ccccc3)CC1)C2 (stereo unspecified)
IC50 (Acetylcholinesterase [1]): 0.19 µM
Ki (Acetylcholinesterase [2]): 0.191 µM

COc1cc2cc(C3CC[N+](C)(Cc4ccccc4)CC3O)sc2cc1OC (stereo unspecified)
IC50 (Acetylcholinesterase [1]): 19.6 µM
Ki (Acetylcholinesterase [2]): 19.5 µM

COc1cc2c(cc1OC)SC(C(=O)CCc1cc[n+](Cc3ccc(F)cc3)cc1)C2 (stereo unspecified)
IC50 (Acetylcholinesterase [1]): 0.0026 µM
Ki (Acetylcholinesterase [2]): 0.00257 µM

COc1cc2cc(C(=O)C3=CC[N+](C)(Cc4ccccc4)CC3)sc2cc1OC (stereo unspecified)
IC50 (Acetylcholinesterase [1]): 0.52 µM
Ki (Acetylcholinesterase [2]): 0.525 µM

COc1cc2cc(C(=O)C3CCC[N+](C)(CC#N)CC3)sc2cc1OC (stereo unspecified)
IC50 (Acetylcholinesterase [1]): 1 µM
Ki (Acetylcholinesterase [2]): 1 µM

COC(=O)C[N+]1(C)CCC(CCC(=O)C2Cc3cc(OC)c(OC)cc3S2)CC1 (stereo unspecified)
IC50 (Acetylcholinesterase [1]): 0.054 µM
Ki (Acetylcholinesterase [2]): 0.0537 µM

CC[n+]1ccc(CCC(=O)C2Cc3cc(OC)c(OC)cc3S2)cc1 (stereo unspecified)
IC50 (Acetylcholinesterase [1]): 0.28 µM
Ki (Acetylcholinesterase [2]): 0.282 µM

COc1cc2onc(CCC3CCN(Cc4ccccc4)CC3)c2cc1C
IC50 (Acetylcholinesterase [1]): 0.0058 µM
Ki (Acetylcholinesterase [2]): 0.00575 µM

C=CC[n+]1ccc(CCC(=O)C2Cc3cc(OC)c(OC)cc3S2)cc1 (stereo unspecified)
IC50 (Acetylcholinesterase [1]): 0.00627 µM
Ki (Acetylcholinesterase [2]): 0.219 µM

COc1cc2c(cc1OC)SC(C(=O)CCc1cc[n+](CC3CC3)cc1)C2 (stereo unspecified)
IC50 (Acetylcholinesterase [1]): 0.11 µM
Ki (Acetylcholinesterase [2]): 0.11 µM

COCC[n+]1ccc(CCC(=O)C2Cc3cc(OC)c(OC)cc3S2)cc1 (stereo unspecified)
IC50 (Acetylcholinesterase [1]): 0.03 µM
Ki (Acetylcholinesterase [2]): 0.0302 µM

COc1cc2cc(C3=CC[N+](C)(Cc4ccccc4)CC3)sc2cc1OC (stereo unspecified)
IC50 (Acetylcholinesterase [1]): 2.67 µM
Ki (Acetylcholinesterase [2]): 2.69 µM

C[N+]1(Cc2ccccc2)CCC(CCC(=O)c2ccc3c(c2)OCO3)CC1 (stereo unspecified)
IC50 (Acetylcholinesterase [1]): 0.0415 µM
Ki (Acetylcholinesterase [2]): 0.0417 µM

C[N+]1(Cc2ccccc2)CCC(CCC(=O)c2ccc3c(c2)CCCCO3)CC1 (stereo unspecified)
Ki (Acetylcholinesterase [2]): 0.138 µM

O=C1Cc2cc3onc(CCC4CCN(Cc5ccccc5)CC4)c3cc2N1
Ki (Acetylcholinesterase [2]): 0.000955 µM

O=C1CCc2cc3c(CCC4CCN(Cc5ccccc5)CC4)noc3cc2N1
Ki (Acetylcholinesterase [2]): 0.000575 µM

Brc1ccc2c(CCC3CCN(Cc4ccccc4)CC3)noc2c1
Ki (Acetylcholinesterase [2]): 0.0501 µM

COc1cc2cc(C(=O)C3CC[N+](C)(Cc4ccccc4)CCC3O)sc2cc1OC (stereo unspecified)
IC50 (Acetylcholinesterase [1]): 0.043 µM
Ki (Acetylcholinesterase [2]): 0.0427 µM

COc1cc2cc(C(=O)CC3CCCC[N+](C)(Cc4ccccc4)CC3)sc2cc1OC (stereo unspecified)
IC50 (Acetylcholinesterase [1]): 0.11 µM
Ki (Acetylcholinesterase [2]): 0.11 µM

COc1cc2c(cc1OC)SC(C(=O)CCc1cc[n+](Cc3ccsc3)cc1)C2 (stereo unspecified)
IC50 (Acetylcholinesterase [1]): 0.006 µM
Ki (Acetylcholinesterase [2]): 0.00603 µM

O=C(CCc1cc[n+](Cc2ccccc2)cc1)c1ccc2c(c1)OCO2
IC50 (Acetylcholinesterase [1]): 0.24 µM
Ki (Acetylcholinesterase [2]): 0.24 µM

COCC[N+]1(C)CCCC(C(=O)c2cc3cc(OC)c(OC)cc3s2)CC1 (stereo unspecified)
IC50 (Acetylcholinesterase [1]): 0.053 µM
Ki (Acetylcholinesterase [2]): 0.0525 µM

COc1cc2cc(C(=O)C3CCC[N+](C)(CC(=O)OC(C)(C)C)CC3)sc2cc1OC (stereo unspecified)
IC50 (Acetylcholinesterase [1]): 0.079 µM
Ki (Acetylcholinesterase [2]): 0.0794 µM

COc1cc2c(cc1OC)SC(C(=O)CCc1cc[n+](CC3CCC3)cc1)C2 (stereo unspecified)
IC50 (Acetylcholinesterase [1]): 0.04 µM
Ki (Acetylcholinesterase [2]): 0.0398 µM

COc1cc2c(cc1OC)SC(C(=O)CCc1cc[n+](C)cc1)C2 (stereo unspecified)
IC50 (Acetylcholinesterase [1]): 0.9 µM
Ki (Acetylcholinesterase [2]): 0.891 µM

CN1C(=O)Cc2cc3onc(CCC4CCN(Cc5ccccc5)CC4)c3cc21
IC50 (Acetylcholinesterase [1]): 0.00048 µM
Ki (Acetylcholinesterase [2]): 0.000479 µM

COc1cc2cc(C(=O)CCC3CC[N+](C)(Cc4ccccc4)CC3)n(C)c2cc1OC (stereo unspecified)
Ki (Acetylcholinesterase [2]): 0.12 µM

Cc1ccc2onc(CCC3CCN(Cc4ccccc4)CC3)c2c1
Ki (Acetylcholinesterase [2]): 0.00776 µM

COc1cc2c(cc1OC)SC(C(=O)CCc1cc[n+](Cc3coc([N+](=O)[O-])c3)cc1)C2 (stereo unspecified)
IC50 (Acetylcholinesterase [1]): 0.0045 µM
Ki (Acetylcholinesterase [2]): 0.00447 µM

COc1cc2cc(C(=O)C3CCC[N+](C)(Cc4ccc([N+](=O)[O-])o4)CC3)sc2cc1OC (stereo unspecified)
IC50 (Acetylcholinesterase [1]): 0.032 µM
Ki (Acetylcholinesterase [2]): 0.0324 µM

C[N+]1(Cc2ccccc2)CCC(CCC(=O)c2ccc3c(c2)OCCO3)CC1 (stereo unspecified)
Ki (Acetylcholinesterase [2]): 0.1 µM

Cc1cc(C(=O)CCC2CC[N+](C)(Cc3ccccc3)CC2)nn1-c1ccccc1 (stereo unspecified)
Ki (Acetylcholinesterase [2]): 0.0219 µM

COc1ccc2cc(C(=O)CCC3CC[N+](C)(Cc4ccccc4)CC3)ccc2c1 (stereo unspecified)
Ki (Acetylcholinesterase [2]): 0.0501 µM

CC(=O)Nc1ccc2c(CCC3CCN(Cc4ccccc4)CC3)noc2c1
Ki (Acetylcholinesterase [2]): 0.00282 µM

N#Cc1ccc2c(CCC3CCN(Cc4ccccc4)CC3)noc2c1
Ki (Acetylcholinesterase [2]): 0.1 µM

O=S(=O)(Nc1ccc2c(CCC3CCN(Cc4ccccc4)CC3)noc2c1)c1ccccc1
Ki (Acetylcholinesterase [2]): 0.0141 µM

O=C1Cc2c(ccc3c(CCC4CCN(Cc5ccccc5)CC4)noc23)N1
Ki (Acetylcholinesterase [2]): 0.00363 µM

O=C1Cc2cc3c(CCC4CCN(Cc5ccccc5)CC4)noc3cc2N1 [ICOPEZIL]
Ki (Acetylcholinesterase [2]): 0.000331 µM
